Publication PMC11574021, “CEP192 localises mitotic Aurora-A activity by priming its interaction with TPX2” (The EMBO Journal, 2024)

System: PLK1-pT210 in RPE1 p53-/- cells
Test: Western blot densitometry, PLK1-pT210, RPE1 p53-/-
Assay type: cell-based, Homo sapiens
Settings: mitotic RPE1 p53-/- lysates, inhibitor 30 min
Protocol: For measuring monopolar spindle diameter and counting centriolar foci by immunofluorescence, cells were treated with 10 µM STLC for 1 h and 4 h prior to fixation, respectively.
Drugs were resuspended in DMSO to the stock concentrations indicated in square brackets.
Cells were lysed on ice for 30 min in lysis buffer (50 mM tris pH 8.0, 300 mM NaCl, 0.2%(v/v) NP-40, 10%(v/v) glycerol, protease inhibitor cocktail C, phosphatase inhibitor cocktail 3 (Sigma, 1:200 dilution), 100 nM okadaic acid (Enzo, ALX-350-003-C100)). Lysates were then centrifuged at 14,000 × g, 15 min, 4 °C, the supernatants were transferred to a fresh tube, and the pellet was discarded. Protein concentrations were measured by Bradford assay using Protein Assay Dye Reagent Concentrate (Bio-Rad Laboratories, 5000006). NuPage LDS sample buffer, supplemented with NuPAGE sample reducing agent (Invitrogen) were added prior to boiling for 10 min at 90 °C. […] Nitrocellulose was then blocked in 5% milk (wt/v) in TBS, 0.1% Tween (v/v) (TBST) for 1 h. Primary and secondary antibodies were diluted in 5% milk, TBST and incubated overnight at 4 °C or for 1 h at room temperature, respectively. […]
Densitometric quantification of western blots was also performed in ImageJ. Intensity was measured in a rectangular region of interest (ROI) around each band. […] An adjacent region was also measured to account for background intensity.

How did the “T-loop phosphorylation of PLK1 (pT210)” value turn out when `COc1cc(Nc2ncc3c(n2)-c2ccc(Cl)cc2C(c2c(F)cccc2OC)=NC3)ccc1C(=O)O` [Alisertib] was run?
The value was “decreased”.
